Values quoted from earlier work as cited in patent US20250325473A1, “COLLAGEN-IMPREGNATED DEVICES AND METHODS FOR TREATMENT OF CANCER” (COLLAGEN MATRIX, INC., priority 2022, published 2025).
Square brackets hold non-standard residues; d marks the D form. Ends that are not written are not given here. Hyp = O=C(O)[C@@H]1C[C@@H](O)CN1

How the values were obtained:
Set-up in all cases: key: A plus sign (+) indicates a response similar in peptides II-22, III-23, or GPS-GFO (control); a minus sign (−) Indicates less than 20% of control; +/−: +/ − indicates 20-80% of control
His-DDR2 or DS2-Fc = conditions: binding to His-DDR2 or DS2-Fc, response relative to control peptides II-22, III-23 or GPS-GFO; guest sequences flanked by (GPP)
Sequence of His-DDR2 or DS2-Fc (Q16832 30-185 limits assumed): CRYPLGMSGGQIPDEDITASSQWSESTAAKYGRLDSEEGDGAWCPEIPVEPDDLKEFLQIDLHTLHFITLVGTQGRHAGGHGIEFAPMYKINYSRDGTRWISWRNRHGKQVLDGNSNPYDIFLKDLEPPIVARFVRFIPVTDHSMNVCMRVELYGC

DDR2-Fc or DDR2-Fc2 = conditions: binding to DDR2-Fc or DDR2-Fc2, response relative to control peptides II-22, III-23 or GPS-GFO; includes data from Konitsiotis et al. 2008
Sequence of DDR2-Fc or DDR2-Fc2 (Q16832 30-185 limits assumed): as above

DDR1-Fc or DDR1-Fc2 = conditions: binding to DDR1-Fc or DDR1-Fc2, response relative to control peptides II-22, III-23 or GPS-GFO; guest sequences flanked by (GPP)
Sequence of DDR1-Fc or DDR1-Fc2 (Q08345 31-185 limits assumed): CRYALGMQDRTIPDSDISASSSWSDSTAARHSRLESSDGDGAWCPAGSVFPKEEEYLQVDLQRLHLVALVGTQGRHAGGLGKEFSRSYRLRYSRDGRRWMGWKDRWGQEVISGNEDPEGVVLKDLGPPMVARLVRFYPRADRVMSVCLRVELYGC

Substance | DDR2 binding (His-DDR2 or DS2-Fc) | DDR2 binding (DDR2-Fc or DDR2-Fc2) | DDR1 binding (DDR1-Fc or DDR1-Fc2)
(GAP) -GPRGQOGVMGFO-(GAP) (GAPGAPGAPGAPGAPGPRGQ[Hyp]GVMGF[Hyp]GAPGAPGAPGAPGAP; not fully specified) [GAP-GPR-GFO, non-helical peptide flanked by (GAP) instead of (GPP)] | +/− (+/ − indicates 20-80% of control) | − (a minus sign (−) indicates less than 10% of control) | − (a minus sign (−) indicates less than 10% of control)
GAKGSAGAOGIAGAOGFOGPRGPOGPQ (GAKGSAGA[Hyp]GIAGA[Hyp]GF[Hyp]GPRGP[Hyp]GPQ; not fully specified) [II- ? 3, label partly illegible] | – | + | − (a minus sign (−) indicates less than 10% of control)
GAOGEDGROGPOGPQGARGQOGVMGFO (GA[Hyp]GEDGR[Hyp]GP[Hyp]GPQGARGQ[Hyp]GVMGF[Hyp]; not fully specified) [II-22] | + | + | +
GAOGPLGIAGITGARGLAGPOGMOGPR (GA[Hyp]GPLGIAGITGARGLAGP[Hyp]GM[Hyp]GPR; not fully specified) [III-44] | – | + | − (a minus sign (−) indicates less than 10% of control)
GARGAQGPOGATGFOGAAGRVGPOGSN (GARGAQGP[Hyp]GATGF[Hyp]GAAGRVGP[Hyp]GSN; not fully specified) [II- ? 9, label partly illegible] | – | +/− ((+/− indicates 30-80% of control) | +/− ((+/− indicates 30-80% of control)
GARGEOGNIGFO (GARGE[Hyp]GNIGF[Hyp]; not fully specified) [CI-alpha2] | − (a minus sign (−) Indicates less than 20% of control) | (+)/− ((+)/− indicates 20-30% of control) | +/− ((+/− indicates 30-80% of control)
GARGFOGTOGLOGVKGRRGYOGLDGAK [II-5] | – | +/− ((+/− indicates 30-80% of control) | − (a minus sign (−) indicates less than 10% of control)
GARGQAGVMGFO (GARGQAGVMGF[Hyp]; not fully specified) [CI-alpha1] | + | + | +
GARGQOGVMGFO (GARGQ[Hyp]GVMGF[Hyp]; not fully specified) [GAR-GFO] | – | – | +
GASGDRGPOGPVGPOGLTGPAGEOGRE [II-46] | – | − (a minus sign (−) indicates less than 10% of control) | +/− ((+/− indicates 30-80% of control)
GERGLOGPOGIKGPAGIDGFOGMKGHR [III-5] | – | + | − (a minus sign (−) indicates less than 10% of control)
GFOGER [GPOGER] | − (a minus sign (−) Indicates less than 20% of control) | − (a minus sign (−) indicates less than 10% of control) | − (a minus sign (−) indicates less than 10% of control)
GFOGPK (GF[Hyp]GPK; not fully specified) | − (a minus sign (−) Indicates less than 20% of control) | − (a minus sign (−) indicates less than 10% of control) | − (a minus sign (−) indicates less than 10% of control)
GLAGRQGIVGLDGQRGERGFOGLOGPS [II-44] | – | + | − (a minus sign (−) indicates less than 10% of control)
GPOGPQGVKGERGSDGGDGAAGFOGAR [III- ? 9] | – | + | − (a minus sign (−) indicates less than 10% of control)
GPOGPSGPRGQOGVMGFOGPKGNDGAO (GP[Hyp]GPSGPRGQ[Hyp]GVMGF[Hyp]GPKGNDGA[Hyp]; not fully specified) [III-23] | + | + | +

Substance | DDR2 binding (His-DDR2 or DS2-Fc) | DDR2 binding (DDR2-Fc or DDR2-Fc2) | DDR1 binding (DDR1-Fc or DDR1-Fc2)
GPRGQOGVMGFO [GPR-GFO] | + | + | +
GPRGQOGVMGFOGPK (GPRGQ[Hyp]GVMGF[Hyp]GPK; not fully specified) [GPR-GPK] | − (a minus sign (−) Indicates less than 20% of control) | + | (+)/− ((+)/− indicates 20-30% of control)
GPSGARGQOGVMGFO (GPSGARGQ[Hyp]GVMGF[Hyp]; not fully specified) [GPS-GFO-5A] | − (a minus sign (−) Indicates less than 20% of control) | + | +
GPSGPAGQOGVMGFO (GPSGPAGQ[Hyp]GVMGF[Hyp]; not fully specified) [GPS-GFO-6A] | + | +/− ((+/− indicates 30-80% of control) | +/− ((+/− indicates 30-80% of control)
GPSGPRGAOGVMGFO (GPSGPRGA[Hyp]GVMGF[Hyp]; not fully specified) [GPS-GFO-8A] | +/− (+/ − indicates 20-80% of control) | + | +
GPSGPRGQAGVMGFO (GPSGPRGQAGVMGF[Hyp]; not fully specified) [GPS-GFO-9A] | + | + | +
GPSGPRGQO (GPSGPRGQ[Hyp]; not fully specified) [GPS-GQO] | − (a minus sign (−) Indicates less than 20% of control) | − (a minus sign (−) indicates less than 10% of control) | − (a minus sign (−) indicates less than 10% of control)
GPSGPRGQOGAMGFO (GPSGPRGQ[Hyp]GAMGF[Hyp]; not fully specified) [GPS-GFO-11A] | + | + | +
GPSGPRGQOGVAGFO (GPSGPRGQ[Hyp]GVAGF[Hyp]; not fully specified) [GPS-GFO-12A] | + | (+)/− ((+)/− indicates 20-30% of control) | − (a minus sign (−) indicates less than 10% of control)
GPSGPRGQOGVM (GPSGPRGQ[Hyp]GVM; not fully specified) [GPS-GVN] | − (a minus sign (−) Indicates less than 20% of control) | − (a minus sign (−) indicates less than 10% of control) | − (a minus sign (−) indicates less than 10% of control)
GPSGPRGQOGVMGAO (GPSGPRGQ[Hyp]GVMGA[Hyp]; not fully specified) [GPS-GFO-14A] | − (a minus sign (−) Indicates less than 20% of control) | − (a minus sign (−) indicates less than 10% of control) | − (a minus sign (−) indicates less than 10% of control)
GPSGPRGQOGVMGFA (GPSGPRGQ[Hyp]GVMGFA; not fully specified) [GPS-CFO-15A] | +/− (+/ − indicates 20-80% of control) | +/− ((+/− indicates 30-80% of control) | (+)/− ((+)/− indicates 20-30% of control)
GPSGPRGQOGVMGFO [GPS-GFO] | + | + | +
GQOGVMGFO (GQ[Hyp]GVMGF[Hyp]; not fully specified) [GQO-GFO] | + | +/− ((+/− indicates 30-80% of control) | +/− ((+/− indicates 30-80% of control)
GQOGVMGFOGPKGANGEOGKAGEKGLO (GQ[Hyp]GVMGF[Hyp]GPKGANGE[Hyp]GKAGEKGL[Hyp]; not fully specified) [II-23] | + | + | − (a minus sign (−) indicates less than 10% of control)
GVMGFO (GVMGF[Hyp]; not fully specified) | +/− (+/ − indicates 20-80% of control) | +/− ((+/− indicates 30-80% of control) | +/− ((+/− indicates 30-80% of control)
